{
  "source": "patent US20100105730A1",
  "about": "(H. Lundbeck A/S, priority 2007, published 2010)",
  "key": {"[1]": {"target": "T1, SERT (Rattus norvegicus, UniProt P31652)", "T1 construct": "rat cortical synaptosome preparation; from tissue; host or cells: rat cortical synaptosomes", "T1 sequence (P31652 whole entry)": "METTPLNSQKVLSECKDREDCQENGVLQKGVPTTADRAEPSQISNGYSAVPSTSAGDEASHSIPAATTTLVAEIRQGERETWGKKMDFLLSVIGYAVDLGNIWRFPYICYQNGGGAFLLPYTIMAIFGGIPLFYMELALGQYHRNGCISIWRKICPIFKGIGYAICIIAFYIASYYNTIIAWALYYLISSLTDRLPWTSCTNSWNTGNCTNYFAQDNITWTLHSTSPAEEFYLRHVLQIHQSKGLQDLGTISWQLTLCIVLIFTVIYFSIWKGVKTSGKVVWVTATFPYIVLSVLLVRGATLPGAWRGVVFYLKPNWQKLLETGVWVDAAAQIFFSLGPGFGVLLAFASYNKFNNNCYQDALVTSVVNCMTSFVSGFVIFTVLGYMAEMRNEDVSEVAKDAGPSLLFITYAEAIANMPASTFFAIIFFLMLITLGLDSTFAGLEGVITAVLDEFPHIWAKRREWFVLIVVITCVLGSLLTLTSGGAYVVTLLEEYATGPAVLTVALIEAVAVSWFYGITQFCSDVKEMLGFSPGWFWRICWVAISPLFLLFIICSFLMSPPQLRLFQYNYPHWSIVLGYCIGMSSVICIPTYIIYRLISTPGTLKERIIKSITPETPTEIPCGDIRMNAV", "test": "Serotonin (5-HT) reuptake inhibition, rat cortical synaptosomes", "assay_type": "biochemical", "conditions": "rat cortical synaptosome preparation", "experimental": "(§1) Non-specific uptake was determined in the presence of 10 μM talsupram or citalopram and the total uptake was determined in the presence of buffer. Aliquots were incubated for 15 minutes at 37° C. […] Filters were washed and counted in a Wallac MicroBeta counter."}, "[2]": {"target": "T2, NET (Rattus norvegicus, UniProt Q63380)", "T2 construct": "rat cortical synaptosome preparation; from tissue; host or cells: rat cortical synaptosomes", "T2 sequence (Q63380 1-617)": "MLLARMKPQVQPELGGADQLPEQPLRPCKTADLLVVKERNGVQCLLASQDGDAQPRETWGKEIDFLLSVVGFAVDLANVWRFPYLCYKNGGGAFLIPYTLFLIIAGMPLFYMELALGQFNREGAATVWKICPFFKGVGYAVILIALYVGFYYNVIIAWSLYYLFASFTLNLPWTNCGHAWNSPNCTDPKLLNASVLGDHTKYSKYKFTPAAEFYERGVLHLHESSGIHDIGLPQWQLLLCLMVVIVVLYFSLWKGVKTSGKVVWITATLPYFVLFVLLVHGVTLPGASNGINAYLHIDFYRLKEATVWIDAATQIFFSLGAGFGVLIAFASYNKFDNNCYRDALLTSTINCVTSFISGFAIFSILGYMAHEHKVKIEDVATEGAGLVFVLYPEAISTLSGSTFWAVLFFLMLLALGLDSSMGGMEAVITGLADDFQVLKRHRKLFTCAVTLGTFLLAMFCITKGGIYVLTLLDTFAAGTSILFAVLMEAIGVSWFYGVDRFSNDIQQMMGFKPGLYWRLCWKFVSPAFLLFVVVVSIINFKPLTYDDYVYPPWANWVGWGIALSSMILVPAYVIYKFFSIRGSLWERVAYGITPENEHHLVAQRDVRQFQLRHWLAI", "test": "Norepinephrine (NE) reuptake inhibition, rat cortical synaptosomes", "assay_type": "biochemical", "conditions": "rat cortical synaptosome preparation; read-out: IC50 at NET ([3H]NE uptake)", "experimental": "as §1"}, "[3]": {"target": "T3, human-homomeric 5-HT3A receptors (Homo sapiens, UniProt P46098)", "T3 sequence (P46098 24-478)": "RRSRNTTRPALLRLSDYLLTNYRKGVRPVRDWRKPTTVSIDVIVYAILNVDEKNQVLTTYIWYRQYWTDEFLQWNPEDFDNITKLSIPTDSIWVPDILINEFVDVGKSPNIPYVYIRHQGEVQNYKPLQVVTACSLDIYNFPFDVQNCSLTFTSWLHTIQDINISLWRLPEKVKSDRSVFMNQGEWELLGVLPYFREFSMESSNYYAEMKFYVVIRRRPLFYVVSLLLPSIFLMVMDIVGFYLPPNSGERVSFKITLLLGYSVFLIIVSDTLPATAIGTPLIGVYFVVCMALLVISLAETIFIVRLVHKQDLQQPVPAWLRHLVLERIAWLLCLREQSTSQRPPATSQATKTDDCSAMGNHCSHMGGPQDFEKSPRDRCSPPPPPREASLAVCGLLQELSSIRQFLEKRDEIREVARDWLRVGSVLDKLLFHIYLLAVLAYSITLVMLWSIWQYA", "test": "Electrophysiology in oocytes expressing human-homomeric 5-HT3A receptors", "assay_type": "cell-based", "experimental": "The experiments were carried out as follows. […] Oocytes avoid of the follicle layer were selected and incubated for 24 hours in Modified Barth's Saline buffer [88 mM NaCl, 1 mM KCl, 15 mM HEPES, 2.4 mM NaHCO3, 0.41 mM CaCl2, 0.82 mM MgSO4, 0.3 mM Ca(NO3)2] supplemented with 2 mM sodium pyruvate, 0.1 U/l penicillin and 0.1 μg/l streptomycin. Stage […] oocytes were identified and injected with 12-48 nl of nuclease free water containing 14-50 pg of cRNA coding for human 5-HT3A receptors receptors and incubated at 18° C. until they were used for electrophysiological recordings (1-7 days after injection). […] Cells were impaled with agar plugged 0.5-1 MΩ electrodes containing 3 M KCl and voltage clamped at −90 mV by a GeneClamp 500B amplifier. The oocytes were continuously perfused with Ringer buffer and the drugs were applied in the perfusate."}, "[4]": {"target": "T4, α1A receptor (Homo sapiens, UniProt P35348)", "T4 sequence (P35348 1-466)": "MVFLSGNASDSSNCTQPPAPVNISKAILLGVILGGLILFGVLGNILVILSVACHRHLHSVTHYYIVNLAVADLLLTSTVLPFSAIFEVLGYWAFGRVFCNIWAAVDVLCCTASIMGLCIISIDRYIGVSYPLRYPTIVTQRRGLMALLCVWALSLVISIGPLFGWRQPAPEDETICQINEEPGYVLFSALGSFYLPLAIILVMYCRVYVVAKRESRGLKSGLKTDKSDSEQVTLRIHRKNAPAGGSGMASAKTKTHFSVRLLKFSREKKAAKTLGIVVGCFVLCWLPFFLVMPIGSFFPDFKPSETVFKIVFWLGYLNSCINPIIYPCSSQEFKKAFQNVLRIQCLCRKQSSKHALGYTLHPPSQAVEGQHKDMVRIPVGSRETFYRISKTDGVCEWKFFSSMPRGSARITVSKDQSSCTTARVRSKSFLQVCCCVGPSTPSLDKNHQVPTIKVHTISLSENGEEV", "test": "α1A receptor affinity, [3H]-Prazosin binding to membranes", "conditions": "Ki by Cheng Prusoff, read-out: Ki, affinity for α1A receptors", "experimental": "On the day of the experiments membranes (see below for description of membrane preparation) are thawed and homogenized in buffer using an ultra turrax and diluted to the desired concentration (5 μg/well˜5/900 μl, store on ice until use). The experiment is initiated by mixing of 50 μl test compound, 50 μl [^3H]-Prazosin and […], and the mixture is incubated for 20 minutes at 25° C. Non-specific binding is determined in the presence of 10 μM WB-4101 and the total binding is determined in the presence of buffer. After the incubation, bound ligand is separated from unbound by filtration through Unifilter GF/B, presoaked in 0.1% PEI for 30 minutes, using a Tomtec Cell Harvester program (D4.2..4). 96 well. Filters are washed 3 times with 1 ml ice-cold buffer, dried at 50° C. and 35 μl scintillation liquid/well is added to the filters. Bound radioactivity is counted in a Wallac OY 1450 MicroBeta. […] Concentrations of compound covering 2 decades were used to calculate the IC50 value."}, "[5]": {"tested_on": "extracellular levels of acetylcholine in the prefrontal cortex and ventral hippocampus", "test": "Microdialysis, extracellular acetylcholine levels in freely-moving rats", "assay_type": "in vivo, rat", "conditions": "FIGS. 1a and 1b", "experimental": "Male Sprague-Dawley rats, initially weighing 275-300 g, were used. The animals were housed under a 12-hr light/dark cycle under controlled conditions for regular in-door temperature (21±2° C.) and humidity (55±5%) with food and tap water available ad libitum.\nRats were anaesthetised with hypnorm/dormicum (2 ml/kg) and intracerebral guide cannulas (CMA/12) were stereotaxically implanted into the hippocampus, aiming to position the dialysis probe tip in the ventral hippocampus (co-ordinates: 5.6 mm posterior to bregma, lateral—5.0 mm, 7.0 mm ventral to dura or in the frontal cortex (co-ordinates: 3.2 mm anterior to bregma; lateral, 0.8 mm; 4.0 mm ventral to dura). Anchor screws and acrylic cement were used for fixation of the guide cannulas. The body temperature of the animals was monitored by rectal probe and maintained at 37° C. The rats were allowed to recover from surgery for 2 days, housed singly in cages. […]\nConcentration of acetylcholine (ACh) in the dialysates was analysed by means of HPLC with electrochemical detection using a mobile phase consisting of 100 mM disodium hydrogenphosphate, 2.0 mM octane sulfonic acid, 0.5 mM tetramethylammonium chloride and 0.005% MB (ESA), pH 8.0. […] The latter was detected electrochemical by using a platinum electrode (Analytical cell: ESA, model 5040). […]"}, "[6]": {"tested_on": "extracellular dopamine (DA) levels in the rat frontal cortex", "test": "Microdialysis, extracellular dopamine levels in rat frontal cortex", "assay_type": "in vivo", "conditions": "single injection", "experimental": "Male Sprague-Dawley rats, initially weighing 275-300 g, were used. The animals were housed under a 12-hr light/dark cycle under controlled conditions for regular in-door temperature (21±2° C.) and humidity (55±5%) with food and tap water available ad libitum. For the three-day treatment experiments osmotic minipumps (Alzet, 2ML1) were used. The pumps were filled under aseptic conditions and implanted subcutaneously under sevoflurance anaesthesia. The experiments were carried out with the minipumps on board. Blood samples for measuring plasma levels of the test compound after 3 days of treatment were collected at the end of the experiments. Animals were anaesthetised with hypnorm/dormicum (2 ml/kg) and intracerebral guide cannulas (CMA/12) were stereotaxically implanted into the hippocampus, positioning the dialysis probe tip in the ventral hippocampus (co-ordinates: 5.6 mm […] to bregma, lateral—5.0 mm, 7.0 mm ventral to dura or in the frontal cortex (co-ordinates: 3.2 mm anterior to bregma; lateral, 3.0 mm; 4.0 mm ventral to dura). Anchor screws and acrylic cement were sued for fixation of the guide cannulas. The body temperature of the animals was monitored by rectal probe and maintained at 37° C. The rats were allowed to recover from surgery for 2 days, housed singly in cages. […]"}, "[7]": {"tested_on": "formalin model of neuropathic pain", "test": "Formalin model of neuropathic pain in mice", "assay_type": "in vivo, C57/B6 mice", "experimental": "The irritation caused by the formalin injection elicits a characteristic biphasic behavioural response, as quantified by the amount of time spent licking the injured paw. The first phase (—O—10 minutes) represents direct chemical irritation and nociception, whereas the second (−20-30 minutes) is thought to represent pain of neuropathic origin. The two phases are separated by a quiescent period in which behaviour returns to normal. Measuring the amount of time spent licking the injured paw in the two phases assesses the effectiveness of test compounds to reduce the painful stimuli. Eight C57/B6 mice (ca. 25 g) were tested per group. […] The amount of compound administered is calculated as the free base."}, "[8]": {"target": "T5, 5-HT2A receptors (Homo sapiens, UniProt P28223)", "T5 sequence (P28223 whole entry)": "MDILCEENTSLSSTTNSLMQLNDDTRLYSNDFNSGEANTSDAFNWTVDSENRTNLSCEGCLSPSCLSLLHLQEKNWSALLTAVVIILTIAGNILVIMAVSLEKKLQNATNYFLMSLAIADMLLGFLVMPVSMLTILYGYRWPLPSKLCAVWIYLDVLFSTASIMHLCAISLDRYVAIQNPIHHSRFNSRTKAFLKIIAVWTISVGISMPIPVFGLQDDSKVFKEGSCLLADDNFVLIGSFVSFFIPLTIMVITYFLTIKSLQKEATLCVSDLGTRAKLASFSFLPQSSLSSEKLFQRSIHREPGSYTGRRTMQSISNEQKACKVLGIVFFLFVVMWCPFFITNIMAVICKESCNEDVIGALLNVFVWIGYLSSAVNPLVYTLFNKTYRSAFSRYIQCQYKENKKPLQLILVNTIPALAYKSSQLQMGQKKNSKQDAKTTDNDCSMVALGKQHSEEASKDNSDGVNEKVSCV", "test": "5-HT2A receptor affinity (MDL Pharmaservices catalogue number 271650)", "assay_type": "binding", "parameters": "purchased MDL Pharmaservices 271650"}, "[9]": {"target": "T5, 5-HT2A receptors", "test": "Binding to human 5-HT2A receptors expressed in mammalian cells", "parameters": "expressed in transfected cells; host or cells: CHO cells", "conditions": "mammalian cells expressing human 5-HT2A receptors"}, "[10]": {"target": "T5, 5-HT2A receptors", "test": "Antagonism of 5-HT evoked Ca2+ release in CHO cells expressing human 5-HT2A receptors (FLIPR)", "assay_type": "cell-based", "parameters": "expressed in transfected cells; host or cells: CHO cells", "experimental": "The experiment was carried out as follows. 2 or 3 days before the experiment CHO cells expressing 250 fmol/mg human 5-HT2A receptors are plated at a density sufficient to yield a mono-confluent layer on the day of the experiment. The cells are dye loaded (Ca^2+-kit from Molecular Devices) for 60 minutes at 37° C. in a 5% CO2 incubator at 95% humidity. Basal fluorescence was monitored in a fluorometric imaging plate reader or FLIPR^384 from Molecular Devices (Sunnyvale, Calif.) with an excitation wavelength of 488 nm and an emission range of 500 to 560 nm. […] The variation in basal fluorescence should be less than 10%. […] IC; values were calculated using Cheng-Prusoff equation."}},
  "note": "Where two headings read alike, the source gives them in different places.",
  "data": [
    {"compound": "Cc1ccc(Sc2ccccc2C2CCNCC2)cc1", "note": "[compound I, 4-[2-(4-methylphenylsulfanyl)phenyl]piperidine]", "values": [
      {"measurement": "IC50", "setting": "[1]", "result": 8, "unit": "nM"},
      {"measurement": "IC50", "setting": "[2]", "result": 23, "unit": "nM"},
      {"measurement": "Kb", "setting": "[3]; 0.1 nM-100 nM, read-out: Kb, antagonism in low concentrations", "result": "~2", "unit": "nM"},
      {"measurement": "EC50", "setting": "[3]; 100-100000 nM, read-out: EC50, agonistic properties in higher concentrations", "result": "~2600", "unit": "nM"},
      {"measurement": "maximal current, % of the maximal current elicited by 5-HT itself", "setting": "[3]; agonism at higher concentrations (100-100000 nM)", "result": "70-80%"},
      {"measurement": "IC50", "setting": "[3]; read-out: IC50, antagonism in low concentrations", "result": "~10", "unit": "nM"},
      {"measurement": "Ki", "setting": "[4]", "result": 34, "unit": "nM"},
      {"measurement": "extra-cellular acetylcholine levels in the brain", "setting": "[5]", "result": "dose dependent increase"},
      {"measurement": "enhancement of DA levels above baseline levels", "setting": "[6]; 8.9 mg/kg s.c.", "result": "approximately 100%"},
      {"measurement": "enhancement of DA levels above baseline levels", "setting": "[6]; 18 mg/kg s.c.", "result": "~150", "unit": "%"},
      {"measurement": "time spent licking the injured paw, 0-5 minutes", "setting": "[7]; 1.0 mg/kg, first phase", "result": 37, "unit": "s"},
      {"measurement": "time spent licking the injured paw, 20-30 minutes", "setting": "[7]; 1.0 mg/kg, second phase", "result": 43, "unit": "s"},
      {"measurement": "time spent licking the injured paw, 0-5 minutes", "setting": "[7]; 10 mg/kg, first phase", "result": 37, "unit": "s"},
      {"measurement": "effect in the first phase (direct chemical irritation and nociception)", "setting": "[7]; first phase, in words", "result": "little effect"},
      {"measurement": "time spent licking paws in the second phase", "setting": "[7]; second phase, in words", "result": "clear and dose dependent decrease"},
      {"measurement": "Ki", "setting": "[8]", "result": 54, "unit": "nM"},
      {"measurement": "Ki", "setting": "[9]", "result": "< 100", "unit": "nM"},
      {"measurement": "Kb", "setting": "[10]; Kb, antagonism of 5-HT evoked release of Ca2+ from intracellular stores, functional assay", "result": 67, "unit": "nM"},
      {"measurement": "Kb", "setting": "[10]; schild analysis, read-out: Kb, schild analysis (competitive antagonism)", "result": 100, "unit": "nM"}
    ]}
  ]
}
